Data as given in a compilation of properties of binary mixtures (doi:10.1007/s10953-008-9260-8).

Test: xn = mol fraction of the nth substance listed
Settings: 101 kPa

CCCC[n+]1ccn(C)c1.F[B-](F)(F)F + CCCCCC[n+]1ccn(C)c1.F[B-](F)(F)F
x1 = 1
Settings | viscosity [mPa·s]
298.15 K | 106.4
299.15 K | 101
301.15 K | 91.1
302.15 K | 86.7
303.15 K | 82.6
304.15 K | 78.9
307.15 K | 68.5
308.15 K | 65.4

CC[n+]1ccn(C)c1.F[B-](F)(F)F + CCCCCC[n+]1ccn(C)c1.F[B-](F)(F)F
x1 = 1
Settings | viscosity [mPa·s]
298.15 K | 35.8
301.15 K | 32.15
302.15 K | 31.06
303.15 K | 30.06
304.15 K | 29.01
305.15 K | 28.13
307.15 K | 26.38

CCCC[n+]1ccn(C)c1.F[B-](F)(F)F + CCCC[n+]1ccn(C)c1.COS(=O)(=O)[O-]
x1 = 1
Settings | viscosity [mPa·s]
298.15 K | 108.9
299.15 K | 103.5
301.15 K | 93.2
303.15 K | 84.5
304.15 K | 80.5
307.15 K | 69.9
308.15 K | 66.8

CCCCCC[n+]1ccn(C)c1.F[B-](F)(F)F + CCCC[n+]1ccn(C)c1.F[B-](F)(F)F
viscosity [mPa·s]
Settings | 298.15 K | 299.15 K | 301.15 K | 302.15 K | 303.15 K | 304.15 K | 305.15 K | 307.15 K | 308.15 K
x2 = 0 | 209 | 197.3 | 175.8 | 165.9 | 157 | 148.6 | 140.7 | 126.7 | 120
x2 = 0.054 | 200.2 | 188.7 | 168.3 | 160.4 | 147.5 | 142.5 | 135.7 | – | 117.4
x2 = 0.103 | – | – | 164.5 | 156.8 | 147.1 | – | 132 | 119 | –
x2 = 0.2076 | 172.4 | 161.3 | 145 | 137.3 | 130.2 | 122.8 | 117.3 | 106.1 | 101
x2 = 0.2995 | 167.3 | 161.3 | 141.6 | 134.2 | 127.2 | 120.6 | 114.6 | – | 98.5
x2 = 0.3602 | 165.7 | 156.7 | 140.4 | – | – | 119.8 | – | 102.6 | –
x2 = 0.4383 | 158.7 | 149 | 133.4 | 126.3 | 119.7 | 113.7 | – | 97.4 | –
x2 = 0.5047 | 149.8 | 144 | 129.1 | 122.4 | 116.1 | – | 104.7 | 94.6 | 90
x2 = 0.555 | 144 | 135.9 | 122.2 | – | – | 104.4 | 99.3 | 90 | 85.9
x2 = 0.598 | 142.4 | 134.7 | 121.1 | 114.9 | 108.6 | 103.6 | – | 89.3 | 85.2
x2 = 0.809 | 122.3 | – | – | 99.2 | – | 89.9 | – | 77.7 | 74.5
x2 = 0.8917 | – | 109.5 | – | – | – | 85 | 81 | 73.6 | 70.3

CCCC[n+]1ccn(C)c1.COS(=O)(=O)[O-] + CCCC[n+]1ccn(C)c1.F[B-](F)(F)F
viscosity [mPa·s]
Settings | 298.15 K | 299.15 K | 301.15 K | 302.15 K | 303.15 K | 304.15 K | 305.15 K | 307.15 K | 308.15 K
x2 = 0 | 215 | – | 181.2 | – | 162.3 | 156.8 | 145.7 | 131.2 | 124.5
x2 = 0.1209 | 192.5 | – | – | 153.9 | 145.8 | 138.2 | – | 118.2 | –
x2 = 0.2142 | 188.2 | 177.6 | – | 147 | 142.2 | 134.8 | – | 115.2 | 109.5
x2 = 0.3057 | 180.2 | 170.3 | 152.3 | – | 136.7 | – | 123.2 | 111.2 | 105.9
x2 = 0.406 | 168.1 | 160.7 | 142.4 | 135 | – | 121.4 | 115 | 104 | –
x2 = 0.4358 | – | 151.3 | – | 129.3 | 122.4 | 116 | 110 | – | 94.5
x2 = 0.5118 | – | 147.4 | 132.1 | 125.1 | – | 112.7 | 107 | 96.8 | 92
x2 = 0.5412 | 149.5 | 143.6 | 128.6 | – | 115.8 | – | 104 | 93.9 | 89.6
x2 = 0.6026 | – | 138.4 | 124.1 | – | 111.4 | 105.7 | – | – | 86.8
x2 = 0.648 | 141.6 | 133.8 | 120 | – | 108 | 102.4 | 97.1 | 87.8 | 83.6
x2 = 0.6934 | 137.5 | 130 | – | 110.8 | 105.1 | – | 95.1 | 86.2 | 82
x2 = 0.7813 | 128.4 | 121.5 | – | 103.9 | 98.7 | 93.8 | 89.3 | 81.2 | 77.4
x2 = 0.9005 | 117.6 | 111.5 | 100.7 | 96 | 90.7 | 86.9 | – | 75.4 | 72.6
x2 = 0.9447 | – | 105.3 | 95.1 | 90.7 | 86.2 | 82 | – | 71.1 | –
